Consider eight compounds from ChEMBL document CHEMBL1155824, “Synthesis and antitumor activity of cyclodepsipeptide zygosporamide and its analogues” (Bioorg Med Chem Lett, 2008).

Common to all, as to format: functional, cell-based
One assay relates to SF-268. Nature of the assay: Cytotoxicity against human SF268 cells.
A further assay relates to HCT-116. Nature of the assay: Cytotoxicity against human HCT116 cells.
In another assay the test system is SF-295. Kind of assay: Cytotoxicity against human SF295 cells.
The test system of the next assay is MDA-MB-231. Kind of assay: Cytotoxicity against human MDA-MB-231 cells.
In another assay the test system is A549. Kind of assay: Cytotoxicity against human A549 cells.

Structures are written as SMILES. pIC50: −log10 of the molar value.

The pIC50 is the IC50 on a negative log10 scale, so that one unit is a factor of ten. A high value points to a small IC50. As to `CC(C)C[C@@H]1NC(=O)[C@@H](CC(C)C)NC(=O)[C@H](Cc2ccccc2)NC(=O)[C@H](CC(C)C)OC(=O)[C@H](C)NC1=O`, the pIC50 in the assay on SF-268 was 5.06; in the assay with HCT-116, 5.57; in the assay with SF-295, 5.22; in the assay on MDA-MB-231 it was 5.55; with A549, < 4.30.
On to `CC(C)C[C@@H]1NC(=O)[C@H](Cc2ccccc2)NC(=O)[C@H](CC(C)C)NC(=O)[C@@H](CC(C)C)NC(=O)[C@H](Cc2ccccc2)NC1=O`, for which the pIC50 was 4.69 in the assay on SF-268; 5.72 with HCT-116; 4.84 with SF-295; < 4.30 with MDA-MB-231; 4.68 in the assay with A549.
Regarding `CC(C)C[C@@H]1NC(=O)[C@@H](C)NC(=O)[C@H](Cc2ccccc2)NC(=O)[C@H](CC(C)C)OC(=O)[C@H](Cc2ccccc2)NC1=O`, the pIC50 in the assay with SF-268 was 4.98; with HCT-116 it was 5.68; in the assay with SF-295, 5.06; in the assay with MDA-MB-231 it was 5.30; in the assay with A549, < 4.30.
With `CC(C)C[C@@H]1NC(=O)[C@@H](CC(C)C)NC(=O)[C@H](Cc2ccccc2)NC(=O)[C@H](C)OC(=O)[C@H](Cc2ccccc2)NC1=O`, the pIC50 in the assay with SF-268 is 4.51; with HCT-116 it was 5.11; in the assay with SF-295, 4.49; in the assay with MDA-MB-231, < 4.30; with A549, < 4.30.
For `CC(C)C[C@@H]1NC(=O)[C@@H](CC(C)C)NC(=O)[C@H](C)NC(=O)[C@H](CC(C)C)OC(=O)[C@H](Cc2ccccc2)NC1=O`, the pIC50 is 4.46 with SF-268; < 4.30 with HCT-116; 4.71 with SF-295; 5.12 with MDA-MB-231; 4.51 with A549.
`CC(C)C[C@@H]1NC(=O)[C@@H](CC(C)C)NC(=O)[C@H](Cc2ccccc2)NC(=O)[C@H](CC(C)C)OC(=O)[C@H](Cc2ccccc2)NC1=O` [ZYGOSPORAMIDE]: the pIC50 with SF-268 was 5.34; in the assay with HCT-116, 4.66; in the assay with SF-295, 5.38; in the assay on MDA-MB-231 it was 5.24; with A549, 5.60.
On to `CC(C)C[C@@H]1OC(=O)[C@H](Cc2ccccc2)NC(=O)[C@H](C)NC(=O)[C@@H](CC(C)C)NC(=O)[C@H](Cc2ccccc2)NC1=O`, for which the pIC50 in the assay with SF-268, in the assay on HCT-116, in the assay on SF-295, in the assay on MDA-MB-231 and in the assay with A549 was < 4.30 in each case.
Consider `CC(=O)O[C@H]1C(=O)[C@@]2(C)[C@H]([C@H](OC(=O)c3ccccc3)[C@]3(O)C[C@H](OC(=O)[C@H](O)[C@@H](NC(=O)c4ccccc4)c4ccccc4)C(C)=C1C3(C)C)[C@]1(OC(C)=O)CO[C@@H]1C[C@@H]2O` [PACLITAXEL], for which the pIC50 is 7.82 in the assay with SF-268; 7.87 in the assay on HCT-116; 6.54 with SF-295; 7.39 in the assay with MDA-MB-231; 7.64 with A549.
